Measurements reported in US7507727B2, “Substituted quinobenzoxazine analogs and methods of using thereof” (Cylene Pharmaceuticals, Inc., priority 2003, dated 2009).
Where “and” joins values, the source holds several entries; their conditions need not be identical. Equal values may be shown once. Read-outs that look alike come from different tables or passages of the source.

Legend:
[1] = system: Salmonella typhimurium (TA97a, TA98, TA100, TA102, TA1535); conditions: positive control
Procedure: This Mutagenicity Assessment (Ames Assay) evaluated the potential of the test article extracts to induce histidine (his) reversion in S. typhimurium (his− to his+) or tryptophan (trp) reversion in E. coli (trp− to trp+) caused by base changes or frameshift mutations in the genome of tester organisms.
This plate incorporation assay was conducted with five strains of Salmonella typhimurium (TA97a, TA98, TA100, TA102, and TA1535) and one strain of Escherichia coli (WP2-uvrA^−) in the presence and absence of an exogenous mammalian activation system (S9). The test article was dissolved in 5% dextrose. A series of dilutions were then prepared in saline just prior to testing. A Range Finding Study was conducted for this assay to determine the appropriate doses for definitive mutagenicity assessment.
A stock solution of test article was prepared at 20.0 mg/mL as follows: 1.0 g test article was added to 15.0 mL of 0.1 HCl for 1 minute. The test article was stirred for 15 minutes at room temperature. Next 33.0 mL of deionized water was added and allowed to stir for 30 minutes. […] Lower doses were prepared by dilution in 5% dextrose from this stock immediately prior to use. To minimize any change of degradation, the test article solutions were kept on ice after preparation and until just prior to dosing procedures. The test article was administered in vitro, through a solvent compatible with the test system.
This assay has historically been used to detect mutation in a gene of a histidine requiring strain to produce a histidine independent strain or concordantly, to detect mutation in a gene of a tryptophan requiring strain to produce a tryptophan independent strain.
S. typhimurium strain TA1535 and E. coli strain Wp2-uvrA^− were received from American Type Culture Collection, Manassas, Va. […] All working stocks of test strains will be confirmed for genotypic markers and acceptable reversion rates.
Master plates of the tester strains were prepared from frozen working stocks. To create working cultures for each bacterial strain used in the assay, a single colony was transferred from the master plate into Oxoid nutrient broth and incubated, with shaking, at 37±2° C. until an optical density (at 650 nm) of 0.6-1.6 was reached. This overnight culture was used for the mutagenicity test and for genotypic confirmation. Genotype tests were performed.
For both the dose range and mutagenicity test, a top agar consisting of 0.6% Difco agar in 0.5% NaCl was melted and a solution of 0.5 mM L-histidine/0.5 mM biotin or 0.5 mM L-tryptophan was added to the melted top agar at a ratio of 10 mL per 100 mL agar, as required. The supplemented agar was aliquotted, 2 mL per tube and held at 45-47° C. To prepare the top agar for treatment, 0.1 mL of the test article or control, 0.1 mL of the bacterial culture and 0.5 mL of phosphate buffered saline were added to the molten agar. […] Metabolic activation was provided by adding 0.5 mL of the S9 mix in place of the PBS. […] All plates were counted using an automatic image analysis system. Negative control and test article treated plates were also examined for the presence of a bacterial lawn.
The in vitro metabolic activation system used in this assay was comprised of Sprague Dawley rat liver enzymes and a cofactor pool. […] Immediately prior to use, the S9 was thawed and mixed with a cofactor pool to contain 5% S9, 5 mM glucose 6-phosphate, 4 mM β-nicotine-adenine dinucleotide phosphate, 8 mM MgCl2 and 33 mM KCl in a 200 mM phosphate buffer at pH 7.4. The S9 was purchased from Moltox (Boone, N.C.) and maintained frozen at less than −70° C.
For the definitive assay, three dose levels were chosen ([…], and 5.0 mg/mL). This was equivalent to 2.0, 1.0, and 0.5 mg/plate. All treatments, including negative and positive control, were plated in triplicate against test strains TA97a, TA98, TA100, TA102, TA1535, and WP2-uvrA^− in the presence and absence of metabolic activation.

HCT-116 cells = assay: Annexin V-Alexa 488 staining; assay type: cell-based; conditions: 0.5 uM, control
Procedure: The following protocol was followed for this example. […] Incubate o/n or up to 24 hrs at 37° C. in CO2 incubator. […] Keep one or two untreated plates (medium only) as control plates. […] Harvest cells (collect attached as well as floating cells). Wash cells twice with cold PBS. Re-suspend cells in 1× Annexin binding buffer.
Count cells and dilute in 1× Annexin binding buffer to ˜1×10^6 cells/0.1 ml, preparing a sufficient volume to have 100 μl per assay. Add 5 μl of the Annexin V conjugate to each 100 μl of cell suspension. Add 4 μl of propidium iodide solution (stock=1 mg/ml) to each 100 μl of cell suspension. Incubate sample at RT for 15 minutes. Add 400 μl Annexin binding buffer, mix gently and keep samples on ice. Analyze stained cells immediately by flow cytometry.

[2] = system: Chinese Hamster Ovary Cells (CHO); assay: In vitro chromosome aberration assay (incl. mitotic index); assay type: cell-based
HeLa cells = assay: MTS cell proliferation and/or cytotoxicity assay; assay type: cell-based, Human; conditions: Homo sapiens, HeLa
Summary of the method: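 HeLa cells seeded at 4,500 cells/well, exposed to compounds from day 1 for 3 days at 37 °C, 5% CO2. Viability by MTS/PMS (20:1) with 4 h incubation, absorbance at 490 nm. Values are concentrations giving 50% antiproliferative response.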

[3] = target: c-Myc template DNA (c-myc quadruplex); assay: Quadruplex binding / stop assay (Taq polymerase arrest, capillary electrophoresis)
HCT-116 xenograft = assay: HCT-116 colorectal cancer xenograft model; assay type: in vivo; conditions: HCT-116 model; FIG. 6
Procedure: (§1) Two xenograft models for inoculation were harvested and diluted to a concentration of 50×10^6 cells/ml or 100×10^6 cells/ml. Four to six week old nude mice were injected with 0.1 ml of the cell suspension containing between 5×10^6 and 10×10^6 cells. When tumors are of a suitable size compound dosing is commenced. Tumor sizes are measured throughout the treatment period with calipers and body weights also measured.
CX-3543 was tested against a number of cancer xenograft models to determine the in vivo efficacy. HCT-116 and PC-3 tumor-bearing nu/nu or MiaPaCa tumor-bearing SCID mice were administered reference and testing compounds on schedules indicated in figure legends. Tumor measurements were taken with calipers every other day or twice a week starting from the first day of dosing and body weights were measured at the same time points. Tumor volumes were calculated from the standard formula, W^2×L/2. c-MYC mRNA expression was measured with QPCR from all tumor samples following the final dose. 18S ribosomal RNA was used as a housekeeper and also quantified with QPCR.

Ramos xenograft = assay: Ramos Burkitt's lymphoma xenograft model; assay type: in vivo; conditions: FIG. 5
Procedure: as §1

HCT-116 = assay: Cell proliferation/cytotoxicity in HCT-116 (Table 1D); assay type: cell-based; conditions: Homo sapiens; HCT-116 cells; unit inferred
topoisomerase II = assay: Topoisomerase-II poison assay; assay type: biochemical; conditions: 1 μM; control Topoisomerase-II poison
Excerpt: FIG. 7 illustrates data from a toposiomerase-II poison assay, using VP-16 (Etoposide) as a control Topoisomerase-II poison.

[4] = CHO, positive control high dose (H)
[5] = CHO, positive control low dose (L)
[6] = CHO, positive control low dose (L), 20 hrs
[7] = read-out: S DATA, Table 1D, stop assay data
[8] = HeLa cells, MTS, read-out: Hela MTS

Nc1ccc2cc3ccccc3cc2c1 [2-AA]
FI ([1]; TA100, with S9 activation): 6.8 | TA100 colony count (Rep 1-3) ([1]; TA100, with S9 activation): 655 and 857 and 949 | TA100 colony count, Mean ([1]; TA100, with S9 activation): 820.3

CC[C@@]1(O)C(=O)OCc2c1cc1n(c2=O)Cc2cc3ccccc3nc2-1 [CPT]
Annexin V / duplex DNA dye response (HCT-116 cells): mixed apoptotic/necrotic response

CO[C@@]12[C@H](COC(N)=O)C3=C(C(=O)C(C)=C(N)C3=O)N1C[C@@H]1N[C@@H]12 [MMC]
% CA 3 HRS [2, 4]: 42.0% | FI 3 HRS [2, 4]: 14.0 | % CA 3 HRS [2, 5]: 20.3% | FI 3 HRS [2, 5]: 6.8 | % CA 20 HRS [2, 6]: 26.5% | FI 20 HRS [2, 6]: 8.8 | % MI 20 HRS ([2]; average mitotic index, positive control low dose (L), 20 hrs): 5% | % MI ([2]; average mitotic index, positive control low dose (L), first column (time not given)): 6%

[N-]=[N+]=[N-] [Sodium Azide]
FI ([1]; TA100, without S9 activation): 4.9 | TA100 colony count (Rep 1-3) ([1]; TA100, without S9 activation): 615 and 631 and 702 | TA100 colony count, Mean ([1]; TA100, without S9 activation): 649.3

O=C(NCCN1CCCC1)c1cn2c3c(c(NCCCN4CCOCC4)c(F)cc3c1=O)Oc1cc3ccccc3cc1-2 [compound 494]
IC50 (HeLa cells; 72 h, concentration at which 50% of antiproliferative cell response is seen, 3 days incubation, read-out: MTS Data Hella): 190 nM | IC50 ([3]; read-out: Stop Data c-Myc μM, concentration at which 50% of the DNA was arrested (arrested:full-length 1:1)): 0.44 µM | antitumor activity: efficacy (HCT-116 xenograft): slow tumor weight gain | toxicity (body weight) (HCT-116 xenograft): little body weight change

CN1CCN(CCCNCCC(=O)N[C@@H]2CCN(c3c(F)cc4c(=O)c(C(=O)N5CCOCC5)cn5c4c3Oc3cc4c(cc3-5)oc3ccccc34)C2)CC1 [compound 1204]
antitumor activity: efficacy (Ramos xenograft): slow tumor weight gain | toxicity (body weight) (Ramos xenograft): little body weight change

CN1CCCC1CCNC(=O)c1cn2c3c(c(N[C@H]4CN5CCC4CC5)c(F)cc3c1=O)Oc1cc3ccccc3cc1-2 (stereo partly drawn) [compound 1496]
IC50 (HCT-116): 340 nM | IC50 [3, 7]: 0.375 µM

O=C(NCCN1CCCC1)c1cn2c3c(c(N4CCC(c5cnccn5)C4)c(F)cc3c1=O)Oc1ccc(Cl)cc1-2 (stereo not drawn) [compound 1795]
IC50 (HeLa cells; [8]): 500 nM | IC50 [3, 7]: 2.9 µM

NC1CCN(c2c(F)cc3c(=O)c(C(=O)NCCN4CCCC4)cn4c3c2Oc2cc(Cl)ccc2-4)C1 (stereo not drawn) [compound 1800]
IC50 (HeLa cells; [8]): 180 nM | IC50 [3, 7]: 2.6 µM

O=C(NCCN1CCCC1)c1cn2c3c(c(N4CCC(c5cnccn5)C4)c(F)cc3c1=O)Oc1cc(Cl)ccc1-2 (stereo not drawn) [compound 1811]
IC50 (HCT-116): 200 nM | IC50 [3, 7]: 2.8 µM

O=C(NCCN1CCCC1)c1cn2c3c(c(NCCCN4CCOCC4)c(F)cc3c1=O)Oc1cc(Cl)ccc1-2 [compound 1816]
IC50 (HCT-116): 30 nM | IC50 [3, 7]: 5 µM

CC(C)(C)OC(=O)N1CCN(c2c(F)cc3c(=O)c(C(=O)NCCN4CCCC4)cn4c3c2Oc2cc(Cl)ccc2-4)CC1 [compound 1818]
IC50 (HCT-116): 40 nM | IC50 [3, 7]: 2.9 µM

O=C(NCCN1CCCC1)c1cn2c3c(c(N4CCNCC4)c(F)cc3c1=O)Oc1cc(Cl)ccc1-2 [compound 1820]
IC50 (HCT-116): 30 nM | IC50 [3, 7]: 8.2 µM

CC(C)CN1CCN(c2c(F)cc3c(=O)c(C(=O)NCCN4CCCC4)cn4c3c2Oc2cc(Cl)ccc2-4)CC1 [compound 1826]
IC50 (HCT-116): 30 nM | IC50 [3, 7]: 7.5 µM

CCN1CCN(c2c(F)cc3c(=O)c(C(=O)NCCN4CCCC4)cn4c3c2Oc2cc(Cl)ccc2-4)CC1 [compound 1827]
IC50 (HCT-116): 10 nM | IC50 [3, 7]: 4.8 µM

COc1ccc(CN2CCN(c3c(F)cc4c(=O)c(C(=O)NCCN5CCCC5)cn5c4c3Oc3cc(Cl)ccc3-5)CC2)cc1 [compound 1828]
IC50 (HCT-116): 100 nM | IC50 [3, 7]: 7.5 µM

VP-16
topoisomerase-II mediated DNA cleavage (topoisomerase II): formation of double-strand breaks
